Data on 13 compounds can be found in patent US9850216B2 (H. LEE MOFFITT CANCER CENTER AND RESEARCH INSTITUTE, INC., priority 2013, dated 2017).

The assay deals with ACK1 (Homo sapiens, UniProt Q07912). As to the kind of experiment: ACK1 ELISA: phosphorylation of AKT-derived peptide. Type of assay: biochemical. On the technique in general: In an ELISA, binding on a coated surface is turned into a signal by an enzyme label.
[1] abbreviates: 10 μM, Table 1, replicate values listed.
Where [2] appears, read: 10 μM, Table 1, replicate values listed, read-out: % Inhibition at 10 μM (ELISA).
The mark [3] stands for this setting: 10 μM, Table 2, library 9, read-out: % Inhibition @ 10 μM (ELISA).

Where “and” joins values, the source holds several entries; their conditions need not be identical. Identical values can stand only once. Like-named read-outs stand apart in the source and are kept apart here.

Sequence of ACK1 (Q07912 whole entry): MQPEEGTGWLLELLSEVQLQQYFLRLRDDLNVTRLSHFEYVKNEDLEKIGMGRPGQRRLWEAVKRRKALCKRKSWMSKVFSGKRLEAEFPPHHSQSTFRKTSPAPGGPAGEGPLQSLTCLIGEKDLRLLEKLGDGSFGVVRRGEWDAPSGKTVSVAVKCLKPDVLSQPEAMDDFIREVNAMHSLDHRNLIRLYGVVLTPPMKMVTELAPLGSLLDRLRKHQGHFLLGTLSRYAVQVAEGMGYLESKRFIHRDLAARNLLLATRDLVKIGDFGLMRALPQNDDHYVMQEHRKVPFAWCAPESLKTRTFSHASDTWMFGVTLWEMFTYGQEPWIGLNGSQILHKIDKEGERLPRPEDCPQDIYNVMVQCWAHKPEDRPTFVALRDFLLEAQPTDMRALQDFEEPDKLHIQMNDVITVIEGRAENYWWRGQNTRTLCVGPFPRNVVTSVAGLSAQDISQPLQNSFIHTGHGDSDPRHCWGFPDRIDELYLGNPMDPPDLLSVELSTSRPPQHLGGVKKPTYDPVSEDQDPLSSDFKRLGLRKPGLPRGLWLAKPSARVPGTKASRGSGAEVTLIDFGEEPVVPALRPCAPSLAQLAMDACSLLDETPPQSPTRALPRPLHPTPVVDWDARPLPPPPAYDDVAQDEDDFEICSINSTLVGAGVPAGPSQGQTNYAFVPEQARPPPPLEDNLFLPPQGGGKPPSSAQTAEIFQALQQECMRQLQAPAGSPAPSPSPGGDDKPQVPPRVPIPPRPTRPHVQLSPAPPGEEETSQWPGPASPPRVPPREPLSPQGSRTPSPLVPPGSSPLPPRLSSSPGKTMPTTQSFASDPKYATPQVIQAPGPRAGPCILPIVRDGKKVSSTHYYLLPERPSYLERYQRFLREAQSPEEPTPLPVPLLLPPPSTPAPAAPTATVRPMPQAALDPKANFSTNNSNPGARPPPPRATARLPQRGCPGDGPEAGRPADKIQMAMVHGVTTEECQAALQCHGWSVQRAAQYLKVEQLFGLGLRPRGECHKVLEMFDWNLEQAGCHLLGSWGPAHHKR

Broadly, the % Inhibition is the drop in the measured response relative to a control, in per cent. Read a low % Inhibition as little suppression. In general, inhibition refers to how much of the control response was suppressed. Take `Cl.Clc1cnc(Nc2ccc(C3CCNCC3)cc2)nc1NCC1CCCO1` (stereo not shown) [NT1-005, 5-Chloro-N^2-(4-(piperidin-4-yl)phenyl)-N^4-((tetrahydrofuran-2-yl)methyl)pyrimidine-2,4-diamine]: under setting [1], the “% Inhibition at 10 μM (ELISA)” value is recorded as 80%. Further, the inhibition at 10 µM under setting [2] was 79%.

On to `Cl.Clc1cnc(Nc2ccc(C3CCNCC3)cc2)nc1NC[C@H]1CCCO1` [NT1-010, (R)-5-Chloro-N^2-(4-(piperidin-4-yl)phenyl)-N^4-((tetrahydrofuran-2-yl)methyl)pyrimidine-2,4-diamine], for which the “% Inhibition at 10 μM (ELISA)” value under setting [1] is 76%. The inhibition at 10 µM under setting [2] came to 67%.

For the compound `O=C(O)C1CCN(c2ccc(Nc3ncc(Br)c(NCC4CCCO4)n3)cc2)CC1` (stereo not shown), under setting [1], the “% Inhibition at 10 μM (ELISA)” value is on record as 84%. Besides, the inhibition at 10 µM (read-out: % Inhibition at 10 μM (ELISA), 10 μM, Table 1, replicate values listed) came out at 85%.

For the compound `CCOC(=O)C1CCN(c2ccc(Nc3ncc(Cl)c(NC[C@H]4CCCO4)n3)cc2)CC1.Cl` [DZ1-070, (R)-ethyl1-(4-(5-chloro-4-((tetrahydrofuran-2-yl)methylamino)pyrimidin-2-ylamino)phenyl)piperidine-4-carboxylate], under setting [1], the “% Inhibition at 10 μM (ELISA)” value turned out to be 65%. Also, under setting [2], the inhibition at 10 µM was 52%.

As to `CN1CCN(c2ccc(Nc3ncc(Br)c(NCC4CCCO4)n3)cc2)CC1` (stereo not shown) [Compound 18], the inhibition at 10 µM runs as follows: under setting [3], 67 ± 0.2%; (10 μM, read-out: ACK1 inhibition at 10 μM (ELISA)) 67%.

In the case of `Cl.O=C(O)CCc1ccc(Nc2ncc(Br)c(NCC3CCCO3)n2)cc1` (stereo not shown) [NT1-023, 3-(4-(5-Bromo-4-((tetrahydrofuran-2-yl)methylamino)pyrimidin-2-ylamino)phenyl)propanoic acid], the “% Inhibition at 10 μM (ELISA)” value under setting [1] worked out at 75%. Besides, under setting [2], the inhibition at 10 µM is 74%.

As for `Oc1ccc(Nc2ncc(F)c(NCC3CCCO3)n2)cc1` (stereo not shown) [DZ1-112, 4-(5-fluoro-4-((tetrahydrofuran-2-yl)methylamino)pyrimidin-2-ylamino)phenol], the “% Inhibition at 10 μM (ELISA)” value under setting [1] is recorded as 33%. Also, the inhibition at 10 µM under setting [2] was 53%.

Take `Cl.O=C(Nc1c(F)cccc1Cl)c1cnc(Nc2ccc(O)c(F)c2)nc1NCC1CCCO1` (stereo not shown) [YL7-170-2, N-(2-chloro-6-fluorophenyl)-2-(3-fluoro-4-hydroxyphenylamino)-4-((tetrahydrofuran-2-yl)methylamino)pyrimidine-5-carboxamide hydrochloride]: for the setting “10 μM, Table 1, replicate values listed, hydrochloride”, the “% Inhibition at 10 μM (ELISA)” value is 68% and 67%. Moreover, the inhibition at 10 µM under setting [2] is 65%.

As to `O=C(O)CCC(=O)N1CCN(c2ccc(Nc3ncc(Br)c(NCC4CCCO4)n3)cc2)CC1` (stereo not shown) [YL9-168, 4-(4-(4-(5-Bromo-4-((tetrahydrofuran-2-yl)methylamino)pyrimidin-2-ylamino)phenyl)piperazin-1-yl)-4-oxobutanoic acid], the “% Inhibition at 10 μM (ELISA)” value under setting [1] amounted to 90%. Besides, the inhibition at 10 µM under setting [2] is 94%.

Consider `Brc1cnc(Nc2ccc(N3CCNCC3)cc2)nc1NCC1CCCO1` (stereo not shown) [Compound 15], for which the inhibition at 10 µM under setting [3] amounted to 65%.

With `Cl.O=C(O)Cc1ccc(Nc2ncc(Cl)c(NCC3CCCO3)n2)cc1` (stereo not shown) [NT1-006, 2-(4-(5-Chloro-4-((tetrahydrofuran-2-yl)methylamino)pyrimidin-2-ylamino)phenyl)acetic acid], the “% Inhibition at 10 μM (ELISA)” value under setting [1] was determined as 81%. Under setting [2], the inhibition at 10 µM stood at 72%.

As for `Cl.O=C(O)CCc1ccc(Nc2ncc(Cl)c(NC[C@H]3CCCO3)n2)cc1` [NT1-014, (R)-3-(4-(5-Chloro-4-((tetrahydrofuran-2-yl)methylamino)pyrimidin-2-ylamino)phenyl)propanoic acid], under setting [1], the “% Inhibition at 10 μM (ELISA)” value worked out at 75%. Besides, the inhibition at 10 µM under setting [2] turned out to be 61%.

As to `CCOC(=O)C1CCN(c2ccc(Nc3ncc(C(=O)Nc4c(F)cccc4Cl)c(NCC4CCCO4)n3)cc2)CC1.Cl` (stereo not shown) [DZ1-094, Ethyl 1-(4-(5-(2-chloro-6-fluorophenylcarbamoyl)-4-((tetrahydrofuran-2-yl)methylamino)pyrimidin-2-ylamino)phenyl)piperidine-4-carboxylate], the “% Inhibition at 10 μM (ELISA)” value under setting [1] worked out at 73%. For the same compound, the inhibition at 10 µM under setting [2] was 61%.
